Data published in ChEMBL document CHEMBL2216754, “Discovery of Imidazoquinolines with Toll-Like Receptor 7/8 Independent Cytokine Induction” (ACS Med Chem Lett, 2012).

Assays:
[1] = Immunomodulatory activity in C57BL/6 mouse BMDC assessed as TNFalpha production at 30 uM after 3 days by FACS flow cytometric analysis (reference value: 91.3 +/- 34.5 pg/mL); format: functional
[2] = Immunomodulatory activity in C57BL/6 mouse BMDC assessed as IL-1beta production at 30 uM after 3 days by FACS flow cytometric analysis (reference value: 26.2 +/- 3.7 pg/mL); format: functional
[3] = Immunomodulatory activity in C57BL/6 mouse BMDC assessed as IL-12p40 production at 30 uM after 3 days by FACS flow cytometric analysis (reference value: 260.6 +/- 11.9 pg/mL); format: functional
[4] = Immunomodulatory activity in C57BL/6 mouse BMDC assessed as IL-10 production at 30 uM after 3 days by FACS flow cytometric analysis (reference value: 16.2 +/- 4.7 pg/mL); format: functional
Toll-like receptor 7 = target: T1, Toll-like receptor 7 (Homo sapiens, UniProt Q9NYK1); assay: Agonist activity at human TLR7 transfected in HEK cells assessed as NFkappaB induction after 24 hrs by specific secreted alkaline phosphatase gene assay; format: functional, cell-based, HEK293
T1 sequence (Q9NYK1 whole entry): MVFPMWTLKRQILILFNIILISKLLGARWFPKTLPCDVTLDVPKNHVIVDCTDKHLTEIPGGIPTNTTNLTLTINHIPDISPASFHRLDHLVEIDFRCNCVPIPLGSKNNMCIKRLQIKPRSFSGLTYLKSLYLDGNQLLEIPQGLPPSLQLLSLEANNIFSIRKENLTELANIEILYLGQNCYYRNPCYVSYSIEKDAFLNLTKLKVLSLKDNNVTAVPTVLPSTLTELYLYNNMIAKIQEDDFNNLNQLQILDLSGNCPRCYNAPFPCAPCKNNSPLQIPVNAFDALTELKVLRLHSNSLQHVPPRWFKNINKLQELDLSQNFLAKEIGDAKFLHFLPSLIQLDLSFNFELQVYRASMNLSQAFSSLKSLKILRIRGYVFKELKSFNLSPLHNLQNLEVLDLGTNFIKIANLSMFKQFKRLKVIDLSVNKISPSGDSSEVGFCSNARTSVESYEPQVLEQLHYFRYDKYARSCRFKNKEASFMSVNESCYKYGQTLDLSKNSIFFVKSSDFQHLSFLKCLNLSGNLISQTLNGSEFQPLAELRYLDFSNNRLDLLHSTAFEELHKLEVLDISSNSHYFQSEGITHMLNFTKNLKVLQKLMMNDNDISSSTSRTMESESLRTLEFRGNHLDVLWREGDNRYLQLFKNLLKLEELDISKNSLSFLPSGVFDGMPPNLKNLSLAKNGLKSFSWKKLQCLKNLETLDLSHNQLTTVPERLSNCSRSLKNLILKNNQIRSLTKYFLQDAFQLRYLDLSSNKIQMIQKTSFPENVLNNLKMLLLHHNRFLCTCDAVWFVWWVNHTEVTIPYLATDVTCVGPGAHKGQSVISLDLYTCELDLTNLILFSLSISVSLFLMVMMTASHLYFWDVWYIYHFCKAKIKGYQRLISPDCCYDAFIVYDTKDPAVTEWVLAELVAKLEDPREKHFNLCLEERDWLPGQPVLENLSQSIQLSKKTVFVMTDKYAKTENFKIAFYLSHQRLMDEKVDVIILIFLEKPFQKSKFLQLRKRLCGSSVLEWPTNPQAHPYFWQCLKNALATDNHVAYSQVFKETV

Toll-like receptor 8 = target: T2, Toll-like receptor 8 (Homo sapiens, UniProt Q9NR97); assay: Agonist activity at human TLR8 transfected in HEK cells assessed as NFkappaB induction after 24 hrs by specific secreted alkaline phosphatase gene assay; format: functional, cell-based, HEK293
T2 sequence (Q9NR97 whole entry): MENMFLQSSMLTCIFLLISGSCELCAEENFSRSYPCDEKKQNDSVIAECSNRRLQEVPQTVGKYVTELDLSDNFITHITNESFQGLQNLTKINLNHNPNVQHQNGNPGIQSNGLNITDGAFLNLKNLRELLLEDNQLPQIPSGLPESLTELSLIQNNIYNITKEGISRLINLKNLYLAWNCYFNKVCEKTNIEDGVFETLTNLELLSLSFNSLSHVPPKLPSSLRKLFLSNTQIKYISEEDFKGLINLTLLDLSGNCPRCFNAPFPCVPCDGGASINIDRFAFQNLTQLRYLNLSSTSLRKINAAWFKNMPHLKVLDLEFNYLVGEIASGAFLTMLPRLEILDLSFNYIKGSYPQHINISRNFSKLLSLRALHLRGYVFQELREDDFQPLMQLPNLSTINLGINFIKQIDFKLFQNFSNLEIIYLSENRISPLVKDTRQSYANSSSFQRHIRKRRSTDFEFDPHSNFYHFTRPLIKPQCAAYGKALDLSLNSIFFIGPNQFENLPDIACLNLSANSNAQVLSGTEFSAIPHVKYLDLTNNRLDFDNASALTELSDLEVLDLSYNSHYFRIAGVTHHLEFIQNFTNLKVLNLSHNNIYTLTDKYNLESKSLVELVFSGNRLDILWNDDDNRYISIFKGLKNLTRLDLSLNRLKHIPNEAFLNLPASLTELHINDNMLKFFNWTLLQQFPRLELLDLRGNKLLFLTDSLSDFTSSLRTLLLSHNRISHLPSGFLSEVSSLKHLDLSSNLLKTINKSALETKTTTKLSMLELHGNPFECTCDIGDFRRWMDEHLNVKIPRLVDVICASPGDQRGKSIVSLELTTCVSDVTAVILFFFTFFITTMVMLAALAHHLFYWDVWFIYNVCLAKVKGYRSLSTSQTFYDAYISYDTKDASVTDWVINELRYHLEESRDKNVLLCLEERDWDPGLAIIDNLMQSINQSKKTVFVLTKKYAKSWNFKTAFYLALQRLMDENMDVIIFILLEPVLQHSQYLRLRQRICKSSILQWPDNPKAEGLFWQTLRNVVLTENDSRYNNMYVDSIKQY

[5] = Immunomodulatory activity in C57BL/6 mouse BMDC assessed as TNFalpha production at 30 uM after 3 days by FACS flow cytometric analysis relative to imiquimod; format: functional
[6] = Immunomodulatory activity in C57BL/6 mouse BMDC assessed as IL-12p40 production at 30 uM after 3 days by FACS flow cytometric analysis relative to imiquimod; format: functional

Row | SMILES | EC50 (Toll-like receptor 7) [µM] | EC50 (Toll-like receptor 8) [µM] | Activity [1] [pg/mL] | Activity [2] [pg/mL] | Activity [3] [pg/mL] | Activity [4] [pg/mL] | fold change (FC) [5] | fold change (FC) [6]
1 | CCCCc1nc2c(N)nc3ccccc3c2n1CC(C)(C)O | – | – | 1743 | 73 | 864 | 181 | – | –
2 | CC(C)(O)Cn1cnc2c(N)nc3ccccc3c21 | 95 | > 270 | 2041 | 61 | 839 | 60 | – | –
3 | CCCCc1nc2c(N)nc3cc(C(=O)OC)ccc3c2n1CC(C)(C)O | 1.2 | 41.3 | 1353 | 893 | 1286 | 110 | – | –
4 | CCOCc1nc2c(N)nc3ccccc3c2n1CC(C)(C)O [RESIQUIMOD] | – | – | 2134 | 38 | 1491 | 72 | – | –

More lines, main results first:

Row | EC50 (Toll-like receptor 7) [µM] | EC50 (Toll-like receptor 8) [µM] | SMILES | Activity [1] [pg/mL] | Activity [2] [pg/mL] | Activity [3] [pg/mL] | Activity [4] [pg/mL] | fold change (FC) [5] | fold change (FC) [6]
5 | > 270 | > 270 | COC(=O)c1ccc2c(c1)nc(N)c1ncn(CC(C)(C)O)c12 | 1451 | 1144 | 1773 | 94 | >2 | >2
6 | 12.1 | > 270 | CC(C)Cn1cnc2c(N)nc3ccccc3c21 [IMIQUIMOD] | 593 | 35 | 889 | 33 | – | –
